The text below walks through data of patent publication US20260070887A1 (Shenzhen Zhongge Biological Technology Co., Ltd., priority 2022, published 2026).

Where two headings read alike, the source gives them in different places.

The target of one data set is KIF18A (Homo sapiens (Human), UniProt Q8NI77). As to the kind of experiment: KIF18A ATPase activity under tubulin stimulation (ADP-Glo assay). As to conditions: KIF18A 30 nM, ATP 150 μM, pig microtubules. Format: biochemical.
Another data set concerns OVCAR-3 cells. As to the kind of experiment: OVCAR-3 cell proliferation (Cell Titer-Glo, 10 days). The data set is classed as cell-based, human. An outline of the steps:
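IC50 was fitted by nonlinear regression of percent inhibition versus the 0.1% DMSO control. Luminescence was read with Cell Titer-Glo after 10 days of co-culture of logarithmic-phase cells (400/well) with compound at 0.12 nM–10 μM final, in medium with 20% fetal bovine serum and 0.01 mg/mL insulin.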

A short description of a further data set: PK study in ICR mice. Format: in vivo, mouse. The settings on record: both sexes, mouse, plasma, route and dose not given. The method, then: 6 ICR mice (male/female) were divided into two groups, administered orally and intravenously, respectively, with 3 mice/group. The mice were fasted for 10-14 hours prior to dosing with free access to water.
The test compound was weighed according to the administration dose, and prepared into a dose formulation at appropriate concentrations (for rats and mice, intravenous and oral administration at a volume of 5 mL/kg and 10 mL/kg, respectively), wherein the intravenous injection was a clear solution, and the oral preparation was a clear solution or a homogeneous suspension.
Animals were dosed by intravenous injection and oral gavage, and blood samples were collected at 0.033, 0.083, 0.25, 0.5, 1, 2, 4, 8, and 24 h after intravenous administration and 0.083, 0.25, 0.5, 1, 2, 4, 6, 8, and 24 h after oral administration. Whole blood was centrifuged at 6800 g for 6 min at 4° C. and the top plasma was stored in a −80° C. freezer for later analysis.
The DMSO stock solution of the test compound was diluted into a series of working solutions with a methanol or an acetonitrile solution, and added to a blank plasma matrix, and standard curves were generated and quality control samples were prepared. An appropriate volume of the plasma sample was taken and a suitable multiple of methanol or acetonitrile containing an internal standard was added for protein precipitation based on the response. After centrifugation of all samples at 18000 g for 10 min at 4° C., an appropriate amount of supernatant was taken for LC-MS/MS injection analysis.
Drug concentration-time curves in plasma were plotted according to test concentrations, and pharmacokinetic parameters were calculated using noncompartmental analysis by WinNonlin software, including: half-life (T½), area under the concentration-time curve from time zero to time t (AUCO-t), clearance (CL), volume of distribution at steady state (Vss) and bioavailability (F), with some of the test results shown in Table 4.

Chain of KIF18A (Q8NI77 whole entry): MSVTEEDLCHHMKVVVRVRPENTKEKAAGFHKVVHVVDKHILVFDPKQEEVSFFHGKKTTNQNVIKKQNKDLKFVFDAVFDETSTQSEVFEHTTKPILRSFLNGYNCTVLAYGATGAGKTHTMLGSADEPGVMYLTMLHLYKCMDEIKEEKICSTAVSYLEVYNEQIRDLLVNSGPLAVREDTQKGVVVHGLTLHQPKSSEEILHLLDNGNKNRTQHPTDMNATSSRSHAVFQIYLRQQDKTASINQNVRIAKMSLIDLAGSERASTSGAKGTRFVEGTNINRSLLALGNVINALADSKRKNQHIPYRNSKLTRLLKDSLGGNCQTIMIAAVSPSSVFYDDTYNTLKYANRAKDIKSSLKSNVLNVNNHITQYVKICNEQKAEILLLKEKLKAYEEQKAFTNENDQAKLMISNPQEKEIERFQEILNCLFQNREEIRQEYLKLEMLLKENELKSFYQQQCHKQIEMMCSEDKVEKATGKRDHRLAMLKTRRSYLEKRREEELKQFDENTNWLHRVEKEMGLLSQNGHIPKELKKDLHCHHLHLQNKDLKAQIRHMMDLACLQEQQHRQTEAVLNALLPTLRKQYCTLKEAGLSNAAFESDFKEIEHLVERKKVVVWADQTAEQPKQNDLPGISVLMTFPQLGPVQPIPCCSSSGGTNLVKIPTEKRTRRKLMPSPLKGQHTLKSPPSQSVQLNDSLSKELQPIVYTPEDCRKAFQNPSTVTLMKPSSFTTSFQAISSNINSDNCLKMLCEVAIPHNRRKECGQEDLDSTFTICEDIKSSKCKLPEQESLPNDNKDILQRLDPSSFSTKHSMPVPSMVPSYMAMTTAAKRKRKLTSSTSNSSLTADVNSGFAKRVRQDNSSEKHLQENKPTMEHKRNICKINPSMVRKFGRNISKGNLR
Chain of KIF18A (P02550 whole entry partner): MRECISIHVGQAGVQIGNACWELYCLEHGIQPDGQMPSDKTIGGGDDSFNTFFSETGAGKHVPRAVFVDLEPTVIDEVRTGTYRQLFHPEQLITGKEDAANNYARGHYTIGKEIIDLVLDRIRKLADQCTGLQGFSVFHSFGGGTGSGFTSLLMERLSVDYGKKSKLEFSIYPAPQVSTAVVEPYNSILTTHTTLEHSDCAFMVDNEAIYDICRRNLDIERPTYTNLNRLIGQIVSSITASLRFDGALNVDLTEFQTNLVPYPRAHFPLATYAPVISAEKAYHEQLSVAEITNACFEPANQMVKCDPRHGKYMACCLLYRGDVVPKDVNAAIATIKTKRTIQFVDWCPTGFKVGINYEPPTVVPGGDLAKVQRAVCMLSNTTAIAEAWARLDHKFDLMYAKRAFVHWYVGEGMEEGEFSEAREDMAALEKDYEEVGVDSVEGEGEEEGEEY
Chain of KIF18A (P02554 whole entry partner): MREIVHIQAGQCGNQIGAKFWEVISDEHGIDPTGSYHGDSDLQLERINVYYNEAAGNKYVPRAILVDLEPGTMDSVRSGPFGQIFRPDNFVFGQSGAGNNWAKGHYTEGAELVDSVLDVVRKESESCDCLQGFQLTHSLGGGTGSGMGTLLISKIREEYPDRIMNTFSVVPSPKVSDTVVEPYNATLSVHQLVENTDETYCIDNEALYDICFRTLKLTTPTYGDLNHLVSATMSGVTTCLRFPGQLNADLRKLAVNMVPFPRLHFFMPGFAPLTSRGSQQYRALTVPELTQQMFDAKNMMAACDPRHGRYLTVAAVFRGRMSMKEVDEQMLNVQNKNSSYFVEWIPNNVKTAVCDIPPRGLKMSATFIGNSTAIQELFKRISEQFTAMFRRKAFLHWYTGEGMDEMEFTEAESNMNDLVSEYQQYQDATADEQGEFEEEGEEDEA

With `O=C(Nc1cccc2c1nc1n2CCOC1)c1ccc(NS(=O)(=O)CCO)cc1N1CCC(=C(F)F)CC1` [Example 322, 2-(4-(difluoromethylene)piperidin-1-yl)-N-(3,4-dihydro-1H-benzo[4,5]imidazo[2,1-c][1,4]oxazin-9-yl)-4-((2-hydroxyethyl)sulfonamido)benzamide], the IC50 against KIF18A was no more than 50 nM; with OVCAR-3 cells (Homo sapiens, OVCAR-3, 240 h) it was no more than 50 nM. Moreover, the AUC in the data set “PK study in ICR mice” (read-out: AUC) is 12400 ng·h/mL. Further, the Cmax in “PK study in ICR mice” (read-out: Cmax) was 2420 ng/mL.
Turning to `Cc1cc(NC(=O)c2ccc(NS(=O)(=O)CCO)cc2N2CCC(=C(F)F)CC2)c2cc3n(c2c1)CC(C)(C)OC3` [Example 467, 2-(4-(difluoromethylene)piperidin-1-yl)-4-((2-hydroxyethyl)sulfonamide)-N-(3,3,7-trimethyl-3,4-dihydro-1H-[1,4]oxazino[4,3-a]indol-9-yl)benzamide], the IC50 against KIF18A and with OVCAR-3 cells was 50 to 500 nM throughout.
In the case of `COc1ccc(NC(=O)c2ccc(NS(=O)(=O)CCO)cc2N2CCC(=C(F)F)CC2)c2cc3n(c12)CCC(F)(F)C3` [Example 477, N-(8,8-difluoro-4-methoxy-6,7,8,9-tetrahydropyridino[1,2-a]indol-1-yl)-2-(4-(difluoromethylene)piperidin-1-yl)-4-((2-hydroxyethyl)sulfonamido)benzamide], the IC50 on KIF18A is 50 to 500 nM; in the data set with OVCAR-3 cells (Homo sapiens, OVCAR-3, 240 h) it was no more than 50 nM.
Turning to `COc1ccc(NC(=O)c2ccc(NS(=O)(=O)CCO)cc2N2CCC3(CC2)CC3)c2cc3n(c12)CCC(F)(F)C3OC` (stereo not shown) [Example 479, N-(8,8-difluoro-4,9-dimethoxy-6,7,8,9-tetrahydropyridino[1,2-a]indol-1-yl)-4-((2-hydroxyethyl)sulfonamido)-2-(6-azaspiro[2.5]oct-6-yl)benzamide], the IC50 is 50 to 500 nM against KIF18A and 50 to 500 nM with OVCAR-3 cells (Homo sapiens, OVCAR-3, 240 h).
For `COc1ccc(NC(=O)c2ccc(NS(=O)(=O)CCO)cc2N2CCC3(CC2)CC3)c2cc3n(c12)CCC(F)(F)C3O` (stereo not shown) [Example 482, N-(8,8-difluoro-9-hydroxy-4-methoxy-6,7,8,9-tetrahydropyridino[1,2-a]indol-1-yl)-4-((2-hydroxyethyl)sulfonamido)-2-(6-azaspiro[2.5]oct-6-yl)benzamide], the IC50 against KIF18A is no more than 50 nM; with OVCAR-3 cells (Homo sapiens, OVCAR-3, 240 h) it was no more than 50 nM.
With `COc1ccc(NC(=O)c2ccc(NS(=O)(=O)CCO)cc2N2CCC3(CC2)CC3)c2nc3n(c12)CC(C)(C)OC3` [Example 488], the IC50 against KIF18A was 50 to 500 nM; with OVCAR-3 cells, no more than 50 nM.
Regarding `COc1ccc(NC(=O)c2ccc(NS(=O)(=O)CCO)cc2N2CCC(=C(F)F)CC2)c2nc3n(c12)CC(C)(C)OC3` [Example 489], the IC50 on KIF18A was 50 to 500 nM; in the data set with OVCAR-3 cells (Homo sapiens, OVCAR-3, 240 h), no more than 50 nM.
As to `CC1(C)Cn2c(cc3c(NC(=O)c4ccc(NS(=O)(=O)CCO)cc4N4CCC5(CC4)CC5)ccc(F)c32)CO1` [Example 519, N-(6-fluoro-3,3-dimethyl-3,4-dihydro-1H-[1,4]oxazinyl[4,3-a]indol-9-yl)-4-((2-hydroxyethyl)sulfanilamido)-2-(6-azaspiro[2.5]oct-6-yl)benzamide], the IC50 against KIF18A and in the data set with OVCAR-3 cells was 50 to 500 nM in each case.
Turning to `CC1(C)Cn2c(cc3c(NC(=O)c4ccc(NS(=O)(=O)CCO)cc4N4CCC(=C(F)F)CC4)ccc(F)c32)CO1` [Example 520, 2-(4-(difluoromethylene)piperidin-1-yl)-N-(6-fluoro-3,3-dimethyl-3,4-dihydro-1H-[1,4]oxazino[4,3-a]indol-9-yl)-4-((2-hydroxyethyl)sulfonamido)benzamide], the IC50 against KIF18A was 50 to 500 nM; in the data set with OVCAR-3 cells (Homo sapiens, OVCAR-3, 240 h) it was 50 to 500 nM.
On to `CC1(C)Cn2c(cc3c(NC(=O)c4ccc(NS(=O)(=O)CCO)cc4N4CCC5(CC4)CC5)ccc(Cl)c32)CO1` [Example 521, 2-(6-azaspiro[2.5]oct-6-yl)-N-(6-chloro-3,3-dimethyl-3,4-dihydro-1H-[1,4]oxazino[4,3-a]indol-9-yl)-4-{[(2-hydroxyethyl)sulfonamide]}benzamide], for which the IC50 on KIF18A and with OVCAR-3 cells was 50 to 500 nM each time.
Regarding `Cc1ccc(NC(=O)c2ccc(NS(=O)(=O)CCO)cc2N2CCC3(CC2)CC3)c2cc3n(c12)CC(C)(C)OC3` [Example 525], the values for the IC50 at KIF18A and with OVCAR-3 cells were 50 to 500 nM and no more than 50 nM, respectively.
For `Cc1ccc(NC(=O)c2ccc(NS(=O)(=O)CCO)cc2N2CCC(=C(F)F)CC2)c2cc3n(c12)CC(C)(C)OC3` [Example 526], the IC50 lay within 50 to 500 nM on KIF18A and 50 to 500 nM with OVCAR-3 cells (Homo sapiens, OVCAR-3, 240 h).
As for `CCNC(=O)c1ccc(NC(=O)c2ccc(NS(=O)(=O)CCO)cc2N2CCC3(CC2)CC3)c2cc3n(c12)CC(C)(C)OC3` [Example 527], the IC50 is 50 to 500 nM against KIF18A and no more than 50 nM in the data set on OVCAR-3 cells (Homo sapiens, OVCAR-3, 240 h).
For the compound `CCNC(=O)c1ccc(NC(=O)c2ccc(NS(=O)(=O)CCO)cc2N2CCC(=C(F)F)CC2)c2cc3n(c12)CC(C)(C)OC3` [Example 528], the half-maximal inhibitory concentration (IC50) is 50 to 500 nM at KIF18A and no more than 50 nM with OVCAR-3 cells (Homo sapiens, OVCAR-3, 240 h).
The like results for `Cn1cnc(-c2ccc(NC(=O)c3ccc(NS(=O)(=O)CCO)cc3N3CCC4(CC3)CC4)c3cc4n(c23)CC(C)(C)OC4)c1` [Example 529] were, in that order, 50 to 500 nM and no more than 50 nM.
Regarding `CC(C)Oc1ccc(NC(=O)c2ccc(NS(=O)(=O)CCO)cc2N2CCC3(CC2)CC3)c2cc3n(c12)CC(C)(C)OC3` [Example 531, 4-((2-hydroxyethyl)sulfonamido)-N-(6-isopropoxy-3,3-dimethyl-3,4-dihydro-1H-[1,4]oxazinyl[4,3-a]indol-9-yl)-2-(6-azaspiro[2.5]oct-6-yl)benzamide], the IC50 was 50 to 500 nM on KIF18A and 50 to 500 nM in the data set on OVCAR-3 cells (Homo sapiens, OVCAR-3, 240 h).
For `CC(C)Oc1ccc(NC(=O)c2ccc(NS(=O)(=O)CCO)cc2N2CCC(=C(F)F)CC2)c2cc3n(c12)CC(C)(C)OC3` [Example 532, 2-(4-(difluoromethylene)piperidin-1-yl)-4-((2-hydroxyethyl)sulfonamido)-N-(6-isopropoxy-3,3-dimethyl-3,4-dihydro-1H-[1,4]oxazinyl[4,3-a]indol-9-yl)benzamide], the IC50 against KIF18A and with OVCAR-3 cells was 50 to 500 nM in each case.
As for `CCOc1ccc(NC(=O)c2ccc(NS(=O)(=O)CCO)cc2N2CCC(=C(F)F)CC2)c2cc3n(c12)CC(C)(C)OC3` [Example 536, 2-(4-(difluoromethylene)piperidin-1-yl)-N-(6-ethoxy-3,3-dimethyl-3,4-dihydro-1H-[1,4]oxazino[4,3-a]indol-9-yl)-4-((2-hydroxyethyl)sulfonamido)benzamide], the IC50 against KIF18A lay in the range of 50 to 500 nM; in the data set on OVCAR-3 cells (Homo sapiens, OVCAR-3, 240 h), 50 to 500 nM.
With `COc1ccc(C(=O)Nc2ccc(NS(=O)(=O)CCO)cc2N2CCC3(CC2)CC3)c2cc3n(c12)CC(C)(C)OC3` [Example 565], the results for the IC50 at KIF18A and in the data set on OVCAR-3 cells were 50 to 500 nM and no more than 50 nM, respectively.
In the case of `COc1ccc(C(=O)Nc2ccc(NS(=O)(=O)CCO)cc2N2CCC(=C(F)F)CC2)c2cc3n(c12)CC(C)(C)OC3` [Example 566], the IC50 against KIF18A is no more than 50 nM; in the data set with OVCAR-3 cells, 50 to 500 nM.
Regarding `CC1(C)Cn2c(cc3c(NC(=O)c4ccc(NS(=O)(=O)CCO)cc4N4CCC5(CC4)CC5)ccc(OC(F)(F)F)c32)CO1` [Example 573], the IC50 is no more than 50 nM on KIF18A and 50 to 500 nM with OVCAR-3 cells (Homo sapiens, OVCAR-3, 240 h).
Regarding `CC1(C)Cn2c(cc3c(NC(=O)c4ccc(NS(=O)(=O)CCO)cc4N4CCC(=C(F)F)CC4)ccc(OC(F)(F)F)c32)CO1` [Example 574], the IC50 against KIF18A lay within 50 to 500 nM; in the data set with OVCAR-3 cells (Homo sapiens, OVCAR-3, 240 h) it was 50 to 500 nM.
`[2H]C([2H])([2H])Oc1ccc(NC(=O)c2ccc(NS(=O)(=O)CCO)cc2N2CCC3(CC2)CC3)c2cc3n(c12)CC(C)(C)OC3` [Example 575]: the IC50 on KIF18A is 50 to 500 nM; in the data set with OVCAR-3 cells (Homo sapiens, OVCAR-3, 240 h), no more than 50 nM.
With `[2H]C([2H])([2H])Oc1ccc(NC(=O)c2ccc(NS(=O)(=O)CCO)cc2N2CCC(=C(F)F)CC2)c2cc3n(c12)CC(C)(C)OC3` [Example 576], the IC50 against KIF18A was 50 to 500 nM; with OVCAR-3 cells (Homo sapiens, OVCAR-3, 240 h), no more than 50 nM.
The like results for `O=C(Nc1ccc(OC(F)(F)F)c2c1cc1n2CCC(F)(F)C1)c1ccc(NS(=O)(=O)CCO)cc1N1CCC2(CC1)CC2` [Example 582] were, in that order, no more than 50 nM and 50 to 500 nM.
The like results for `O=C(Nc1ccc(OC(F)(F)F)c2c1cc1n2CCC(F)(F)C1)c1ccc(NS(=O)(=O)CCO)cc1N1CCC(=C(F)F)CC1` [Example 585] were, in that order, 50 to 500 nM and 50 to 500 nM.
The matching figures for `O=C(Nc1ccc(OC(F)F)c2c1cc1n2CCC(F)(F)C1)c1ccc(NS(=O)(=O)CCO)cc1N1CCC(=C(F)F)CC1` [Example 586]: 50 to 500 nM and 50 to 500 nM.
Regarding “N-(1-(cyclopropylmethyl)-1H-indol-4-yl)-4-methoxy-2-(6-azaspiro[2.5]octan-6-yl)benzamide [Example 127]”, the IC50 at KIF18A and with OVCAR-3 cells was no more than 50 nM in each case.

The term IC50 denotes the midpoint of a concentration-inhibition curve. High values mean lower potency, low ones higher potency. As usually defined, the AUC is the area under the concentration-time curve, a measure of exposure. By Cmax is commonly meant the peak of the concentration-time curve.
